Measured values: patent US20200377481A1, “SUBSTITUTED 4-(1-PYRROLIDINYL)PYRIMIDINE COMPOUNDS AS DIMERIZATION INHIBITORS OF NEURONAL NITRIC OXIDE SYNTHASE” (Northwestern University, priority 2016, published 2020)

Columns and labels:
iNOS = target: T1, iNOS (Mus musculus, UniProt P29477); experiment: iNOS Dimerization Inhibition assay (Griess, Raw 264.7 cells, LPS/IFN-γ); type: cell-based, murine
T1 construct: endogenous in cells; host or cells: Raw 264.7 cells stimulated with E. coli LPS and IFN-gamma
T1 sequence (P29477 1-1144): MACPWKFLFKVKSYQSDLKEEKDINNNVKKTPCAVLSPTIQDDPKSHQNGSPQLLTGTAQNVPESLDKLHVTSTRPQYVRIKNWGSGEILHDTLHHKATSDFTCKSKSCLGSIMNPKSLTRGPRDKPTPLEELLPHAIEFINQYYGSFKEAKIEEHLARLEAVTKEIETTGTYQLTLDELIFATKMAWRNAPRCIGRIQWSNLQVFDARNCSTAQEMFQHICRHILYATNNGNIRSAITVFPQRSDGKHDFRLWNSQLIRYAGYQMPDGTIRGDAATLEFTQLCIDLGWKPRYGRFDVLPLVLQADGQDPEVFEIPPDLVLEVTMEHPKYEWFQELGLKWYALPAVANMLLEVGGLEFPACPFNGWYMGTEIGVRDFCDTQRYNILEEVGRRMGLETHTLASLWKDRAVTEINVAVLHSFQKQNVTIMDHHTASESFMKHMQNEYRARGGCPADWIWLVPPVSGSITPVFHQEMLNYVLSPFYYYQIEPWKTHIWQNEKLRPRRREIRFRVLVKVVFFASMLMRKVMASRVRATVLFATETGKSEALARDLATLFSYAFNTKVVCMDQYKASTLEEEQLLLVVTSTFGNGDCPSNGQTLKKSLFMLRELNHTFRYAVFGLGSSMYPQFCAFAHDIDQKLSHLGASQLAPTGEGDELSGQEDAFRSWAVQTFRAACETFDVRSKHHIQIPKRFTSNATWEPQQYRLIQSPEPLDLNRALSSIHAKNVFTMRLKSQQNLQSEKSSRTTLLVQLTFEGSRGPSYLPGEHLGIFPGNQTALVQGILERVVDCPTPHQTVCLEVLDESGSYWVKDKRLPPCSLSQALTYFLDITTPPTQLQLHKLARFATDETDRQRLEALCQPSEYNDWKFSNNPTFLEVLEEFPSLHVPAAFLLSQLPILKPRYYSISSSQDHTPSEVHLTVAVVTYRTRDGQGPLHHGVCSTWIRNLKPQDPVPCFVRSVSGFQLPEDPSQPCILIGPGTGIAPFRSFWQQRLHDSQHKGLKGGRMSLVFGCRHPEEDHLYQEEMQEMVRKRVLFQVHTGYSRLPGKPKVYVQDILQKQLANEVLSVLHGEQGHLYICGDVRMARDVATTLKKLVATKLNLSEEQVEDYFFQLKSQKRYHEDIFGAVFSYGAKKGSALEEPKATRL
Procedure: iNOS Dimerization Inhibition assay. Raw 264.7 cells were grown to confuency in DMEM supplemented with 10% FBS and pen/strep. Cells were then plated into 96 well plates at 50,000 cells per well. After 12h of growth a serial dilution of test compound was added along with e.coli LPS (50 ug/ml final) and IFN-Y (500 ng/ml final) with a vehicle control. Compounds and cells were allowed to interact for 48 h to allow for full degradation of undrugged active dimeric species. After 48 h, 50 uL of the media from each well was removed and mixed with 50 uL Griess Reagent 1 (Promega Griess assay kit). This mixture was incubated for 5 mins and then 50 uL Reagent 2 was added. The plate was read at 530 nm and an IC50 calculated.

eNOS = target: T2, eNOS (Bos taurus, UniProt P29473); experiment: eNOS Dimerization Inhibition assay (Griess, Hek293 cells expressing bovine eNOS); type: cell-based
T2 construct: expressed in transfected cells; host or cells: HEK293 (stably transduced)
T2 sequence (P29473 1-1205): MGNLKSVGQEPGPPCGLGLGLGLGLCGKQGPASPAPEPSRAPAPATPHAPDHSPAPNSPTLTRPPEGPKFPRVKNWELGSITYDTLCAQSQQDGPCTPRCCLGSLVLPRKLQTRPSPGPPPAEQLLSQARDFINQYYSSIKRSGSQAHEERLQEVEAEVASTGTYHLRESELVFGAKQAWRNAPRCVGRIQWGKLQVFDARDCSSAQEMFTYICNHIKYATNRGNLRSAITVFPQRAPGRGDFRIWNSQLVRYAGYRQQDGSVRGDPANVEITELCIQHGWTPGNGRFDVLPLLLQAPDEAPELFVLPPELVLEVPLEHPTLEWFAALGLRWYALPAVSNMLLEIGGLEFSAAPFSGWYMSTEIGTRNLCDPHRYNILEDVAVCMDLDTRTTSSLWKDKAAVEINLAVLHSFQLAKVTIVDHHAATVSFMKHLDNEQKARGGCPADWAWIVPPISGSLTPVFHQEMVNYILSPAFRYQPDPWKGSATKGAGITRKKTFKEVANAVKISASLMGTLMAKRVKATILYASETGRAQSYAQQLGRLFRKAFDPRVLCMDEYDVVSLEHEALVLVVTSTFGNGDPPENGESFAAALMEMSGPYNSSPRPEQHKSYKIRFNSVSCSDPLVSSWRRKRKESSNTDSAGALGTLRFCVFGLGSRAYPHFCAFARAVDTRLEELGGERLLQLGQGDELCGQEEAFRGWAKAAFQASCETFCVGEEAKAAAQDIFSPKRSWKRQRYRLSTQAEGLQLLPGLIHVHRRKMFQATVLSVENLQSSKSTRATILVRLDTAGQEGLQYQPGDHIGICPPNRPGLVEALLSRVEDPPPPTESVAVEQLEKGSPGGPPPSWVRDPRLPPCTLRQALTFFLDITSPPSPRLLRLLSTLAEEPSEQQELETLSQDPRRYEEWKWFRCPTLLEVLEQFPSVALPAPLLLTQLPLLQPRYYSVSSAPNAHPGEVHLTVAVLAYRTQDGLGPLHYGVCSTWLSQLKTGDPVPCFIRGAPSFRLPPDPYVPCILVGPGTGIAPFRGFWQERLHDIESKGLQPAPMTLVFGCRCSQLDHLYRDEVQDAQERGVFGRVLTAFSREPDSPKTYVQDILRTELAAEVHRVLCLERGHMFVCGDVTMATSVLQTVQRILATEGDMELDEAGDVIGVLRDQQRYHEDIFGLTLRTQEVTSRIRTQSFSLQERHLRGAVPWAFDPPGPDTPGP
Procedure: (§1) nNOS Dimerization Inhibition assay. Hek293 cells stably transduced to express rat nNOS were grown to confuency in DMEM supplemented with 10% FBS, pen/strep and 0.4 mg/mL G418. Cells were then plated into 96 well plates at 50,000 cells per well. After 12 h of growth a serial dilution of test compound was added with a vehicle control leaving one additional lane empty as a second activator control. Compounds and cells were allowed to interact for 48 h to allow for full degradation of undrugged active dimeric species. After 48 h […] of a 10 mM calcium ionophore stock was added. After 4 h, 50 uL of the media from each well was removed and mixed with 50 uL Griess Reagent 1 (Promega Griess assay kit). This mixture was incubated for 5 mins and then 50 uL Reagent 2 was added. The plate was read at 530 nm and an IC50 calculated.
eNOS Dimerization Inhibition assay. The nNOS protocol was followed substituting Hek293 cells stably transduced to express bovine eNOS

nNOS = target: T3, nNOS (Rattus norvegicus, UniProt P29476); experiment: nNOS Dimerization Inhibition assay (Griess, Hek293 cells expressing rat nNOS); type: cell-based
T3 construct: expressed in transfected cells; host or cells: HEK293 (stably transduced, G418 selection)
T3 sequence (P29476 whole entry): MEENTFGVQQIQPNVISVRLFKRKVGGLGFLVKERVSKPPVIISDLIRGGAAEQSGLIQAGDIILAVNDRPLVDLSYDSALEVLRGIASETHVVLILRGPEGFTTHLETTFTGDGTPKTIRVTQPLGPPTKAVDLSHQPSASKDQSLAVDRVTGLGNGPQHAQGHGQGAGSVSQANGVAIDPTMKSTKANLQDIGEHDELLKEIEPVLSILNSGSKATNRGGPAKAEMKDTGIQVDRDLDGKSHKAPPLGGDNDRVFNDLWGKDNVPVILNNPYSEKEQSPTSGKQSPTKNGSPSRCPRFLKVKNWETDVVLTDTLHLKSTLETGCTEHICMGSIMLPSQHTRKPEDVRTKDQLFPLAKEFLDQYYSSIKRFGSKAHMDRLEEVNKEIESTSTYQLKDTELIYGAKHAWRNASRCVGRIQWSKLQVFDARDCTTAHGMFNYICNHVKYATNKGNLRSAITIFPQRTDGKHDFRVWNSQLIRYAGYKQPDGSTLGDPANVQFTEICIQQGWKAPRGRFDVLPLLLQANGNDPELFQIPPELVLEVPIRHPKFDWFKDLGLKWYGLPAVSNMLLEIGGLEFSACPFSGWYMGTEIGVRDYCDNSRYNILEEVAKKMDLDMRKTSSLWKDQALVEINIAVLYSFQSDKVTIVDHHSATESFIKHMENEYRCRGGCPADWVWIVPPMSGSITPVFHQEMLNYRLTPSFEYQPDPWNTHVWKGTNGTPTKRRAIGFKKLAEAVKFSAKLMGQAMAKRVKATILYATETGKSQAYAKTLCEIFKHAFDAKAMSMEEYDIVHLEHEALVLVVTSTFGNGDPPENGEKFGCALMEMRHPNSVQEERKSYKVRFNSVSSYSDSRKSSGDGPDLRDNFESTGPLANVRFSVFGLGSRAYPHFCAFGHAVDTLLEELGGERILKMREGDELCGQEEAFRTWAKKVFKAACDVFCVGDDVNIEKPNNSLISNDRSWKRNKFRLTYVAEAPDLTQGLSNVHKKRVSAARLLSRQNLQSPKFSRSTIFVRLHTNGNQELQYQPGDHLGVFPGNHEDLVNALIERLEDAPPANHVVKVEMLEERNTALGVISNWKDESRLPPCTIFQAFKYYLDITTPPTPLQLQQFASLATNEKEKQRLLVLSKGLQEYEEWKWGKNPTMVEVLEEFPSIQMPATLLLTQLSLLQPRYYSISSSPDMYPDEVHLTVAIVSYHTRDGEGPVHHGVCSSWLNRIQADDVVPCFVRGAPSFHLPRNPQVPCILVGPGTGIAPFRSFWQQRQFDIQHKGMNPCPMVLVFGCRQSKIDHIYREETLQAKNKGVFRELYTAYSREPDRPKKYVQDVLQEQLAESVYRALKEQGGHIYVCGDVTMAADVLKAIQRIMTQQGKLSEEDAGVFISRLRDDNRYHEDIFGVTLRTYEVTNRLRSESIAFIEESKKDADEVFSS
Procedure: as §1

| Molecule | IC50 (iNOS) [µM] | IC50 (eNOS) [µM] | IC50 (nNOS) [µM] |
| --- | --- | --- | --- |
| O=C(C[C@H]1CCCN1c1ccnc(-n2ccnc2)n1)NCc1ccc2c(c1)OCO2 [Compound 1, (R)-2-[2-(1H-imidazol-1-yl)-4-pyrimidylpyrrolidin-2-yl)-N-(benzo[d][1,3]dioxo-5-ylmethyl)acetamide] | 0.1 | 18 | 0.2 |
| (R)-2-[2-(1H-imidazol-1-yl)-4-pyrimidylpyrrolidin-2-yl]-N-(3-benzyl-4-methoxybenzyl)acetamide [Compound 5] | 6 | 55 | 14.1 |
| (R)-2-[2-(1H-imidazol-1-yl)-4-pyrimidylpyrrolidin-2-yl]-N-(4-methoxy-3-n-propylbenzyl)acetamide [Compound 4] | 4.5 | 86 | 7.4 |

Continued, values first:

| IC50 (iNOS) [µM] | IC50 (eNOS) [µM] | IC50 (nNOS) [µM] | Molecule |
| --- | --- | --- | --- |
| 0.62 | 21.1 | 0.14 | COc1ccc(CNC(=O)C[C@H]2CCCN2c2ccnc(-n3ccnc3)n2)cc1OC [Compound 2, (R)-2-[2-(1H-imidazol-1-yl)-4-pyrimidylpyrrolidin-2-yl]-N-(3,4-dimethoxybenzyl) acetamide] |
| 3.7 | 57 | 6.7 | CCOc1cc(CNC(=O)C[C@H]2CCCN2c2ccnc(-n3ccnc3)n2)ccc1OC [Compound 3, (R)-2-[2-(1H-imidazol-1-yl)-4-pyrimidylpyrrolidin-2-yl]-N-(3-ethoxy-4-methoxybenzy)acetamide] |
